# What was measured:
# Assay in all cases: Bliss excess, mean over the matrix (fraction); higher = more synergy
# [1] = system: 8305C (Thyroid Gland Carcinoma)
# Method in brief: (§1)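 Cell lines in DMEM/F12 or RPMI with 10% FBS were plated in 1536-well plates, held 24 hours at 37°C, 5% CO2, then given two-drug dose matrices for 72 hours (DMSO typically 0.2%). Viability was read by CellTiter-Glo 2.0 luminescence and scaled as inhibition from 0 (vehicle wells) to 1 (blank wells). Combination Emax is the second-highest inhibition in the matrix; Bliss excess is observed combination effect minus expected EA + EB − EA·EB, EA and EB being single-agent effects.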
# [2] = system: CAL-51 (Breast Carcinoma)
# Method in brief: as §1
# [3] = system: CAL-54 (Kidney Carcinoma)
# Method in brief: as §1
# [4] = system: HCC-15 (Squamous Cell Lung Carcinoma)
# Method in brief: as §1
# [5] = system: HDLM-2 (Hodgkin's Lymphoma)
# Method in brief: as §1
# [6] = system: K5 (Thyroid Gland Carcinoma)
# Method in brief: as §1
# [7] = system: KYSE-410 (Esophageal Squamous Cell Carcinoma)
# Method in brief: as §1
# [8] = system: LU-139 (Small Cell Lung Carcinoma)
# Method in brief: as §1
# [9] = system: MHH-PREB-1 (B-Cell Non-Hodgkin's Lymphoma)
# Method in brief: as §1
# Mewo (Melanoma) = system: Mewo (Melanoma)
# Method in brief: as §1
# NCI-H2461 (Mesothelioma) = system: NCI-H2461 (Mesothelioma)
# Method in brief: as §1
# NCI-H2795 (Mesothelioma) = system: NCI-H2795 (Mesothelioma)
# Method in brief: as §1
# NCI-H28 (Mesothelioma) = system: NCI-H28 (Mesothelioma)
# Method in brief: as §1
# [10] = system: OC-314 (Ovarian Carcinoma)
# Method in brief: as §1
# [11] = system: RKO (Colorectal Carcinoma)
# Method in brief: as §1
# [12] = system: SK-OV-3 (Ovarian Carcinoma)
# Method in brief: as §1
# [13] = system: SU-DHL-6 (B-Cell Non-Hodgkin's Lymphoma)
# Method in brief: as §1
# [14] = system: SW1116 (Colorectal Carcinoma)
# Method in brief: as §1
# [15] = system: SW1271 (Small Cell Lung Carcinoma)
# Method in brief: as §1
# [16] = system: SW626 (Colorectal Carcinoma)
# Method in brief: as §1
Structure (SMILES),Bliss excess [1],Bliss excess [2],Bliss excess [3],Bliss excess [4],Bliss excess [5],Bliss excess [6],Bliss excess [7],Bliss excess [8],Bliss excess [9],Bliss excess (Mewo (Melanoma)),Bliss excess (NCI-H2461 (Mesothelioma)),Bliss excess (NCI-H2795 (Mesothelioma)),Bliss excess (NCI-H28 (Mesothelioma)),Bliss excess [10],Bliss excess [11],Bliss excess [12],Bliss excess [13],Bliss excess [14],Bliss excess [15],Bliss excess [16]
"Cc1c2c(nn1C)CSCc1cc(n(C)n1)CSc1cc(c3ccccc3c1)OCCCc1c(C(=O)O)n(C)c3c-2c(Cl)ccc13 [AZD5991] + C1CN(CCC1(C(=O)N[C@@H](CCO)C2=CC=C(C=C2)Cl)N)C3=NC=NC4=C3C=CN4 [Capivasertib] (first compound max 1 µM, 7x7, partner max 3 µM)",0.0008,0.0392,0.0428,0.0441,0.0369,-0.021,-0.0218,-0.0056,-0.0283,-0.0536,-0.0345,0.119,-0.0315,0.0362,0.0296,-0.0065,-0.0035,-0.0238,-0.0664,-0.018
"COc1cccc(OCCCN)c1-c1cc(Nc2cnc(C#N)cn2)n[nH]1 [Prexasertib] + CN(C)CCCOc1ccc(-c2ccc3ncc4c(c3c2)n(C2CCOCC2)c(=O)n4C)cn1 [AZD0156] (first compound max 1 µM, 7x7, partner max 1 µM)",-0.0926,0.0233,0.0611,-0.0156,-0.0727,-0.0339,-0.03,-0.0244,-0.0167,0.0034,-0.0647,0.05,-0.0307,0.009,-0.014,-0.066,0.0382,-0.0253,-0.0183,-0.0035
"CCN(CCO)CCCOc1ccc2c(Nc3cc(CC(=O)Nc4cccc(F)c4)[nH]n3)ncnc2c1 [AZD2811] + O=C(c1cc(Cc2n[nH]c(=O)c3ccccc23)ccc1F)N1CCN(C(=O)C2CC2)CC1 [Olaparib] (first compound max 1 µM, 7x7, partner max 10 µM)",-0.0398,0.0272,-0.0073,-0.0123,-0.0224,0.0162,-0.0308,-0.0495,0.0032,-0.0112,-0.0638,0.052,-0.0383,0.0254,0.0655,-0.041,0.0252,-0.0008,-0.0312,-0.0134
"CCN(CCO)CCCOc1ccc2c(Nc3cc(CC(=O)Nc4cccc(F)c4)[nH]n3)ncnc2c1 [AZD2811] + C=CCn1c(=O)c2cnc(Nc3ccc(N4CCN(C)CC4)cc3)nc2n1-c1cccc(C(C)(C)O)n1 [AZD1775] (first compound max 1 µM, partner max 1 µM)",-0.0355,0.0511,-0.032,-0.0049,0.0252,-0.0062,-0.0179,-0.0426,-0.0254,-0.011,-0.0679,-0.0117,-0.0541,0.0976,-0.0625,-0.068,0.0537,-0.0275,-0.02,-0.0443
"COc1nnc2ccc(N3CCC(c4ccc(OCCN5CCN(C)C(=O)[C@H]5C)cc4)CC3)nn12 [AZD5153] + C=CCn1c(=O)c2cnc(Nc3ccc(N4CCN(C)CC4)cc3)nc2n1-c1cccc(C(C)(C)O)n1 [AZD1775] (first compound max 1 µM, partner max 1 µM)",-0.077,-0.0111,-0.0366,-0.0356,-0.125,-0.0111,-0.0516,-0.0474,0.007,-0.0245,-0.0344,-0.0308,-0.0562,0.0105,-0.0866,-0.0428,-0.0656,-0.0506,-0.0763,0.0045
"CN(CCO)CC[C@H](CSc1ccccc1)Nc1ccc(S(=O)(=O)NC(=O)c2ccc(N3CCC([C@@H](O)c4ccccc4-c4ccc(Cl)cc4)CC3)cc2)cc1S(=O)(=O)C(F)(F)F [AZD4320] + C1CN(CCC1(C(=O)N[C@@H](CCO)C2=CC=C(C=C2)Cl)N)C3=NC=NC4=C3C=CN4 [Capivasertib] (first compound max 1 µM, 7x7, partner max 3 µM)",-0.0663,-0.0089,-0.0694,-0.0082,-0.0284,-0.0525,-0.0686,-0.0328,-0.029,-0.0262,-0.0564,-0.0572,-0.0821,-0.0007,-0.0191,-0.0663,0.0292,-0.0612,-0.0606,-0.0682
"CC(=O)c1c(C)c2cnc(Nc3ccc(N4CCNCC4)cn3)nc2n(C2CCCC2)c1=O [Palbociclib] + CC1(C)CCC(CN2CCN(c3ccc(C(=O)NS(=O)(=O)c4ccc(NCC5CCOCC5)c([N+](=O)[O-])c4)c(Oc4cnc5[nH]ccc5c4)c3)CC2)=C(c2ccc(Cl)cc2)C1 [Venetoclax] (first compound max 10 µM, 7x7, partner max 1 µM)",-0.0306,0.0055,-0.008,-0.0364,0.0073,0.0216,-0.0511,0.0462,-0.0187,-0.0235,-0.0712,-0.0365,-0.0169,-0.0526,-0.0498,-0.0531,0.0694,-0.0435,-0.0513,-0.0152

# From the supplement of paper PMC11061612
